Results taken from PubChem BioAssay AID330 (DTP/NCI, 2004).
Several values for one entry are separate records, joined by “and”; a condition that tells them apart may be missing. Equal entries are not always repeated. Toxic doses and inconclusive results are not listed.

Test system: P388 leukemia ip, CD2F1 mice, survival T/C
Assay: NCI In Vivo Anticancer Drug Screen. Data for tumor model P388 Leukemia (intraperitoneal) in CD2F1 (CDF1) mice
Settings: endpoint: median survival time, higher = longer survival
How it was run: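 Mice carrying the transplanted tumor received test compound or vehicle. Survival was recorded in each group, and the value is the treated-group measurement divided by that of the vehicle-treated control group.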

[1] = dose: 100.0 mg/kg/injection, schedule: Q04DX003 (ip), vehicle: saline with Tween-80
[2] = dose: 200.0 mg/kg/injection, schedule: Q04DX003 (ip), vehicle: saline with Tween-80
[3] = dose: 400.0 mg/kg/injection, schedule: Q04DX003 (ip), vehicle: saline with Tween-80
[4] = dose: 50.0 mg/kg/injection, schedule: Q01DX009 (ip), vehicle: saline
[5] = dose: 60.0 mg/kg/injection, schedule: Q01DX005 (ip), vehicle: saline with Tween-80
[6] = dose: 120.0 mg/kg/injection, schedule: Q01DX005 (ip), vehicle: saline with Tween-80
[7] = dose: 240.0 mg/kg/injection, schedule: Q01DX005 (ip), vehicle: saline with Tween-80
[8] = dose: 50.0 mg/kg/injection, schedule: Q01DX005 (ip), vehicle: saline with Tween-80
[9] = dose: 100.0 mg/kg/injection, schedule: Q01DX005 (ip), vehicle: saline with Tween-80
[10] = dose: 200.0 mg/kg/injection, schedule: Q01DX005 (ip), vehicle: saline with Tween-80

O=C1N[C@H]2[C@H](O)[C@H](O)[C@@H](O)[C@H](O)[C@@H]2c2cc3c(c(O)c21)OCO3
T/C (dose: 0.18 mg/kg/injection, schedule: Q01DX009 (ip), vehicle: saline + Tween-80 + alcohol): 113 % of control
T/C (dose: 0.37 mg/kg/injection, schedule: Q01DX009 (ip), vehicle: saline + Tween-80 + alcohol): 122 % of control
T/C (dose: 0.38 mg/kg/injection, schedule: Q01DX005 (iv), vehicle: other): 105 % of control
T/C (dose: 0.38 mg/kg/injection, schedule: Q01DX009 (ip), vehicle: saline + alcohol): 119 % of control
T/C (dose: 0.75 mg/kg/injection, schedule: Q01DX005 (ip), vehicle: other): 122 % of control
T/C (dose: 0.75 mg/kg/injection, schedule: Q01DX005 (ip), vehicle: saline + alcohol): 116 % of control
T/C (dose: 0.75 mg/kg/injection, schedule: Q01DX005 (iv), vehicle: other): 105 % of control
T/C (dose: 1.5 mg/kg/injection, schedule: Q01DX005 (iv), vehicle: other): 106 % of control
T/C (dose: 3.0 mg/kg/injection, schedule: Q01DX005 (iv), vehicle: other): 108 % of control
T/C (dose: 3.0 mg/kg/injection, schedule: Q01DX009 (ip), vehicle: saline + Tween-80 + alcohol): 160 % of control
T/C (dose: 3.0 mg/kg/injection, schedule: Q01DX009 (ip), vehicle: saline + alcohol): 161 % of control
T/C (dose: 3.12 mg/kg/injection, schedule: Q01DX009 (ip), vehicle: saline + alcohol): 151 % of control
T/C (dose: 6.0 mg/kg/injection, schedule: Q01DX005 (ip), vehicle: other): 152 % of control
T/C (dose: 6.0 mg/kg/injection, schedule: Q01DX005 (iv), vehicle: other): 121 % of control
T/C (dose: 6.0 mg/kg/injection, schedule: Q01DX009 (ip), vehicle: saline + Tween-80 + alcohol): 162 % of control
T/C (dose: 6.0 mg/kg/injection, schedule: Q01DX009 (ip), vehicle: saline + alcohol): 165 % of control
T/C (dose: 6.25 mg/kg/injection, schedule: Q01DX005 (ip), vehicle: saline + alcohol): 105 % of control
T/C (dose: 6.25 mg/kg/injection, schedule: Q01DX009 (ip), vehicle: saline + alcohol): 155 % of control and 173 % of control
T/C (dose: 12.0 mg/kg/injection, schedule: Q01DX005 (ip), vehicle: other): 155 % of control
T/C (dose: 12.0 mg/kg/injection, schedule: Q01DX005 (ip), vehicle: saline + alcohol): 156 % of control
T/C (dose: 12.5 mg/kg/injection, schedule: Q01DX009 (ip), vehicle: saline + alcohol): 203 % of control

CC(=O)N1C(=O)N(Cl)C(=O)C1(C)c1cccs1 (configuration not stated)
T/C [1]: 100 % of control
T/C [2]: 95 % of control
T/C [3]: 90 % of control

Cc1ccc(N=C(N)N/N=C/c2ccc3c(c2)Cc2ccccc2-3)cc1
T/C (dose: 25.0 mg/kg/injection, schedule: Q04DX002 (ip), vehicle: saline with Tween-80): 106 % of control
T/C (dose: 50.0 mg/kg/injection, schedule: Q04DX002 (ip), vehicle: saline with Tween-80): 107 % of control

CCCCCCCCCCCC(O)CCCC(O)CC(O)CC1CC2CC(CC(=O)O2)O1 (configuration not stated)
T/C (dose: 4.0 mg/kg/injection, schedule: Q01DX009 (ip), vehicle: Klucel (hydroxypropylcellulose) (HPC)): 100 % of control
T/C (dose: 8.0 mg/kg/injection, schedule: Q01DX009 (ip), vehicle: Klucel (hydroxypropylcellulose) (HPC)): 99 % of control
T/C (dose: 16.0 mg/kg/injection, schedule: Q01DX009 (ip), vehicle: Klucel (hydroxypropylcellulose) (HPC)): 95 % of control
T/C (dose: 32.0 mg/kg/injection, schedule: Q01DX009 (ip), vehicle: Klucel (hydroxypropylcellulose) (HPC)): 95 % of control
T/C (dose: 64.0 mg/kg/injection, schedule: Q01DX009 (ip), vehicle: Klucel (hydroxypropylcellulose) (HPC)): 94 % of control

CCC(=O)N(C)C(C)C(=O)OC1CC(=O)N(C)c2cc(cc(OC)c2Cl)CC(C)CCCC(OC)C2(O)CC(OC(=O)N2)C(C)C2OC12C (configuration not stated)
T/C (dose: 1.56 micrograms/kg/injection, schedule: Q01DX009 (ip), vehicle: saline + alcohol): 106 % of control
T/C (dose: 3.12 micrograms/kg/injection, schedule: Q01DX009 (ip), vehicle: saline + alcohol): 105 % of control
T/C (dose: 6.25 micrograms/kg/injection, schedule: Q01DX009 (ip), vehicle: saline + alcohol): 110 % of control
T/C (dose: 12.5 micrograms/kg/injection, schedule: Q01DX009 (ip), vehicle: saline + alcohol): 108 % of control
T/C (dose: 50.0 micrograms/kg/injection, schedule: Q01DX009 (ip), vehicle: saline + alcohol): 105 % of control
T/C (dose: 100.0 micrograms/kg/injection, schedule: Q01DX009 (ip), vehicle: saline + alcohol): 109 % of control
T/C (dose: 200.0 micrograms/kg/injection, schedule: Q01DX009 (ip), vehicle: saline + alcohol): 102 % of control
T/C (dose: 400.0 micrograms/kg/injection, schedule: Q01DX009 (ip), vehicle: saline + alcohol): 114 % of control

NCCCCC1(CCCCN)OCCO1
T/C (dose: 12.5 mg/kg/injection, schedule: Q01DX009 (ip), vehicle: saline): 95 % of control
T/C (dose: 25.0 mg/kg/injection, schedule: Q01DX009 (ip), vehicle: saline): 95 % of control
T/C [4]: 100 % of control

COC(=O)NC1CCC(=O)N1Cc1ccccc1 (configuration not stated)
T/C [5]: 96 % of control
T/C [6]: 94 % of control
T/C [7]: 102 % of control

CCB1OCC(C2OC(O)C3OB(CC)OC32)O1 (configuration not stated)
T/C [8]: 101 % of control and 96 % of control
T/C [9]: 96 % of control
T/C [10]: 103 % of control and 92 % of control

Cc1n[nH]c(=O)c2ccccc12
T/C [1]: 91 % of control
T/C [2]: 99 % of control
T/C [3]: 107 % of control

COC1CCC(NC(C)=O)C(C2CCCCC2)C1 (configuration not stated)
T/C [8]: 99 % of control
T/C [9]: 94 % of control
T/C [10]: 91 % of control

Nc1nc(N)n2c(N)nnc2n1
T/C [4]: 105 % of control
T/C (dose: 100.0 mg/kg/injection, schedule: Q01DX009 (ip), vehicle: saline): 107 % of control
T/C (dose: 200.0 mg/kg/injection, schedule: Q01DX009 (ip), vehicle: saline): 102 % of control

Cc1cc2cc3c(c(C(=O)O)c2o1)C(=O)c1ccc2ccccc2c1C3
T/C [5]: 97 % of control
T/C [6]: 101 % of control
T/C [7]: 94 % of control

CCOC(=O)c1ccc2ccc(OC)c(OC)c2c1
T/C (dose: 12.5 mg/kg/injection, schedule: Q01DX009 (ip), vehicle: other): 95 % of control
T/C (dose: 25.0 mg/kg/injection, schedule: Q01DX009 (ip), vehicle: other): 97 % of control
T/C (dose: 50.0 mg/kg/injection, schedule: Q01DX009 (ip), vehicle: other): 104 % of control
T/C (dose: 100.0 mg/kg/injection, schedule: Q01DX009 (ip), vehicle: other): 95 % of control
T/C (dose: 200.0 mg/kg/injection, schedule: Q01DX009 (ip), vehicle: other): 104 % of control

COc1cccc2c(=O)cc(-c3ccccc3)sc12
T/C (dose: 60.0 mg/kg/injection, schedule: Q01DX005 (ip), vehicle: Klucel (hydroxypropylcellulose) (HPC)): 98 % of control
T/C (dose: 120.0 mg/kg/injection, schedule: Q01DX005 (ip), vehicle: Klucel (hydroxypropylcellulose) (HPC)): 97 % of control
T/C (dose: 240.0 mg/kg/injection, schedule: Q01DX005 (ip), vehicle: Klucel (hydroxypropylcellulose) (HPC)): 90 % of control

NC(CCl)=NCC12CC3CC(CC(C3)C1)C2
T/C (dose: 12.5 mg/kg/injection, schedule: Q01DX009 (ip), vehicle: Klucel (hydroxypropylcellulose) (HPC)): 90 % of control

COC(=O)C1=C(C(=O)OC)P2(C)(C)ON=C(c3c(C)cc(C)cc3C)N2C1(c1ccccc1)c1ccccc1
T/C (dose: 50.0 mg/kg/injection, schedule: Q01DX005 (ip), vehicle: Klucel (hydroxypropylcellulose) (HPC)): 100 % of control and 95 % of control
T/C (dose: 100.0 mg/kg/injection, schedule: Q01DX005 (ip), vehicle: Klucel (hydroxypropylcellulose) (HPC)): 93 % of control
T/C (dose: 200.0 mg/kg/injection, schedule: Q01DX005 (ip), vehicle: Klucel (hydroxypropylcellulose) (HPC)): 91 % of control and 94 % of control

Cc1ccc2nc(NC(=S)NCCCCCCNC(=S)Nc3ccc4cc(C)ccc4n3)ccc2c1
T/C (dose: 50.0 mg/kg/injection, schedule: Q01DX009 (ip), vehicle: Klucel (hydroxypropylcellulose) (HPC)): 93 % of control
T/C (dose: 100.0 mg/kg/injection, schedule: Q01DX009 (ip), vehicle: Klucel (hydroxypropylcellulose) (HPC)): 93 % of control

CNC(=O)OCc1ccccc1-c1ccccc1
T/C (dose: 50.0 mg/kg/injection, schedule: Q01DX009 (ip), vehicle: saline with Tween-80): 98 % of control
T/C (dose: 100.0 mg/kg/injection, schedule: Q01DX009 (ip), vehicle: saline with Tween-80): 97 % of control
T/C (dose: 200.0 mg/kg/injection, schedule: Q01DX009 (ip), vehicle: saline with Tween-80): 95 % of control
